Test results as given in patent US20110250136A1, “FLUORINATED BENZOTHIAZOLE DERIVATIVES, PREPARATION METHOD THEREOF AND IMAGING AGENT FOR DIAGNOSING ALTZHEIMER'S DISEASE USING THE SAME” (SNU R&DB FOUNDATION, priority 2008, published 2011).
Values joined by “and” are separate entries in the source; they are usually repeats but may differ in a detail not shown here. Equal entries are not always repeated. Each block holds one compound with its values, some of them ahead of it.

Legend:
[1] = biological target: T1, Aβ1-40 fibrils (Homo sapiens, UniProt P05067); assay: Binding affinity to beta-amyloid fibrils, competition with [125I]TZDM; details: [125I]TZDM radioligand
T1 construct: beta-amyloid plaque peptides (Aβ1-40 and Aβ1-42)
T1 sequence (P05067 672-711 limits assumed): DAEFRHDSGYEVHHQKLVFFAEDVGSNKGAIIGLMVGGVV
Procedure: (§1) A fibril solution, in which 1 mg of each of beta-amyloid plaque peptides (Aβ1-40 and Aβ1-42) to be used for analysis was dissolved in 1.155 ml of ethylenediaminetetraacetic acid disodium salt (Na2EDTA) solution, was introduced into 20 mM PBS buffer (pH 7.4), a sonication was performed for 30 minutes, and then the mixture was incubated with stirring for 3 days at 30° C. The thus-obtained solution was high speed centrifuged (28,000 g for 15 minutes) at 4° C., and the supernatant was collected. The precipitate was washed twice with 100 μl of a mixture solution of 1 mM ethylenediaminetetraacetic acid disodium salt and 10 mM PBS buffer. The precipitate was resuspended in 2.310 ml of 1 mM ethylenediaminetetraacetic acid disodium salt and 10 mM PBS buffer, and the suspended sold produced was divided into equal aliquots of 30 μl and kept at −80° C. […] A mixed solution with a total volume of 1000 μl was incubated at room temperature for 3 hours, and then a Whatman GF/B filter was used to separate the solution into unbound radioactive materials and bound radioactive materials. Then, each tube was washed three times with 3 μl of 10% ethanol. The radioactivity was measured using an automatic gamma counter.

[2] = biological target: T2, Aβ1-42 fibrils (Homo sapiens, UniProt P05067); assay: as above; details: [125I]TZDM radioligand
T2 construct: beta-amyloid plaque peptides (Aβ1-40 and Aβ1-42)
T2 sequence (P05067 672-713 limits assumed): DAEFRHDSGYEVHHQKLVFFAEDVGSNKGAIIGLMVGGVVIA
Procedure: as §1

[3] = Measurement of partition coefficient (1-octanol / PBS buffer, gamma counter); assay type: physicochemical; details: 1-octanol / 1 M PBS buffer, room temperature; read-out: Log P value
Procedure: For this purpose, the distribution ratio of octanol to water buffer of the compound to be measured may be measured to determine the relative lipophilicity of each compound. […] The mixture was vortexed at room temperature for 5 minutes and then was centrifuged at 1000 rpm for 5 minutes. 4 ml was withdrawn from the octanol layer of the solution, introduced into a new tube, and another 4 ml of 1 M PBS buffer was introduced into the tube. The mixture was vortexed at room temperature for 5 minutes and then centrifuged at 1000 rpm for 5 minutes. 50 μl was withdrawn from the octanol layer and introduced into a test tube, and 500 μl was withdrawn from the 1 M PBS buffer and introduced into the test tube. 3 ml was withdrawn from the octanol layer and introduced into another test tube, and another 3 ml of 1 M PBS buffer was added into the test tube. The mixture was vortexed at room temperature for 5 minutes and then centrifuged at 1000 rpm for 5 minutes. 50 μl was withdrawn from the octanol layer and introduced into a test tube, and 500 μl was withdrawn from the 1 M PBS buffer and introduced into the test tube. 2 ml was withdrawn from the octanol layer and introduced into another test tube, and another 2 ml of the PBS buffer. The mixture was vortexed at room temperature for 5 minutes and then centrifuged at 1000 rpm for 5 minutes. […]

[4] = In vivo cerebral uptake and release degree in a normal mouse; set-up: species or system ICR mice; details: for % ID-kg/g: corrected for body weight; for % ID/g: tail vein injection, normal mouse; for release from normal mouse brain (in words): up to 60 min
Procedure: 6 week-old ICR mice were used for experiments on cerebral uptake and release degree of three 6-[18F]fluorine-2-allylbenzothiazole derivatives (compounds in Examples 1 to 3) in a mouse over time. Each of the compounds in Examples 1 to 3 was dissolved in physiological saline solution containing 5% ethanol, and each of 200 μl (100 μCi) of the solutions was injected through the tail vein of the mouse. 2, 30, and 60 minutes were selected as in-vivo retention time periods, and 4 to 7 mice were used in each time period. After the mice were sacrificed by cervical dislocation in each time period, the brains were quickly removed, they were separated into three parts of cortex, cerebellum, and remnant on filter paper kept on ice, respectively, and blood was collected. The specimen thus-obtained was introduced into a glass tube, the weight was determined, and the radioactivity were measured using a gamma counter. Using the data obtained, the percent injected dose per gram of tissue (% ID/g) in each sample compared to radioactivity actually injected, and the value (% ID-kg/g) corrected for individual body weights of the mice used were calculated.

[5] = Brain imaging (PET) of normal volunteer, brain region to cerebellar ratio; assay type: in vivo, human; details: 196 MBq i.v.; for brain region to cerebellar ratio, Cinerea / brain region to cerebellar ratio, Frontal cortex / brain region to cerebellar ratio, Occipital cortex / brain region to cerebellar ratio, posterior cingulate cortex: PET; for brain region to cerebellar ratio, Cerebell: PET (reference region)
Procedure: Each of the compounds (196 MBq) in Examples 2 and 3 of the present invention was dissolved in 6 ml of physiological saline solution including 5% ethanol, the resulting solution was intravenously injected into a normal volunteer (78 kg), and Static Images of the brain from the injection to 2 hours were obtained through a Phillips Allegro PET scanner. The protocol of the brain imaging repeated emission and transmission as follows.
[2 minute emission+transmission]×four times
[5 minute emission+transmission]×four times
[10 minute emission+transmission]×three times
For attenuation correction, a Cs-137 radiation source prior to the administration was used to obtain a one-and-a half minute transmission scan per bed (18 cm). The transmission image and a 3D Row-Action Maximum-Likelihood (RAMLA) algorithm were used to reconstruct an attenuation corrected image. The 3D voxel size was 2.0×2.0×2.0 mm and the matrix size was 128×128×90 (FIGS. 2 and 3).

[6] = biological target: T1, Aβ1-40 fibrils; details: radioactive ligand, known value, first Aβ1-40; cited from earlier work
[7] = biological target: T2, Aβ1-42 fibrils; details: radioactive ligand, known value, printed as second Aβ1-40; read-out: Kd for Aβ1-40 (second named); cited from earlier work

Ki [1]: 13.3 nM
Ki [2]: 7.55 nM
melting point: 153.5 to 154.5 °C
Structure (SMILES): CNc1ccc(-c2nc3ccc(F)cc3s2)cc1 [Example 5, 2-(4′-N-methylaminophenyl)-6-fluorobenzothiazole]

logP [3]: 4.33
% ID/g ([4]; Blood, 2 min): 1.55 ± 0.08 % ID/g
% ID/g ([4]; Blood, 30 min): 1.04 ± 0.19 % ID/g
% ID/g ([4]; Blood, 60 min): 1.02 ± 0.06 % ID/g
% ID/g ([4]; Cerebellum, 2 min): 4.45 ± 0.19 % ID/g
% ID/g ([4]; Cerebellum, 30 min): 2.03 ± 0.26 % ID/g
% ID/g ([4]; Cerebellum, 60 min): 1.16 ± 0.09 % ID/g
% ID/g ([4]; Cortex, 2 min): 4.39 ± 0.22 % ID/g
% ID/g ([4]; Cortex, 30 min): 2.17 ± 0.26 % ID/g
% ID/g ([4]; Cortex, 60 min): 1.61 ± 0.22 % ID/g
% ID/g ([4]; Remnant (brain), 2 min): 4.26 ± 0.22 % ID/g
% ID/g ([4]; Remnant (brain), 30 min): 2.80 ± 0.39 % ID/g
% ID/g ([4]; Remnant (brain), 60 min): 2.01 ± 0.15 % ID/g
initial cerebral uptake (in words) ([4]; normal mouse brain, 2 min): relatively lower initial cerebral uptake
release from normal mouse brain (in words) ([4]; normal mouse brain): slower 60-minute removal rate
brain region to cerebellar ratio, Cinerea ([5]; 15 min): 0.40
brain region to cerebellar ratio, Frontal cortex ([5]; 15 min): 0.88
brain region to cerebellar ratio, Occipital cortex ([5]; 15 min): 1.17
brain region to cerebellar ratio, posterior cingulate cortex ([5]; 15 min): 0.91
brain region to cerebellar ratio, Cerebell ([5]; 15 min): 1.00
brain region to cerebellar ratio, Cinerea ([5]; 90 min): 0.83
brain region to cerebellar ratio, Frontal cortex ([5]; 90 min): 1.02
brain region to cerebellar ratio, Occipital cortex ([5]; 90 min): 1.12
brain region to cerebellar ratio, posterior cingulate cortex ([5]; 90 min): 1.00
brain region to cerebellar ratio, Cerebell ([5]; 90 min): 1.00
Structure (SMILES): CN(C)c1ccc(-c2nc3ccc([18F])cc3s2)cc1 [Example 3, 2-(4′-N-Dimethylaminophenyl)-6-[^18F]fluorobenzothiazole]
% ID-kg/g ([4]; Blood, 2 min): 0.040 ± 0.003 % ID-kg/g
% ID-kg/g ([4]; Blood, 30 min): 0.026 ± 0.005 % ID-kg/g
% ID-kg/g ([4]; Blood, 60 min): 0.021 ± 0.010 % ID-kg/g
% ID-kg/g ([4]; Cerebellum, 2 min): 0.115 ± 0.005 % ID-kg/g
% ID-kg/g ([4]; Cerebellum, 30 min): 0.050 ± 0.007 % ID-kg/g
% ID-kg/g ([4]; Cerebellum, 60 min): 0.024 ± 0.012 % ID-kg/g
% ID-kg/g ([4]; Cortex, 2 min): 0.114 ± 0.004 % ID-kg/g
% ID-kg/g ([4]; Cortex, 30 min): 0.054 ± 0.006 % ID-kg/g
% ID-kg/g ([4]; Cortex, 60 min): 0.033 ± 0.017 % ID-kg/g
% ID-kg/g ([4]; Remnant (brain), 2 min): 0.110 ± 0.006 % ID-kg/g
% ID-kg/g ([4]; Remnant (brain), 30 min): 0.069 ± 0.010 % ID-kg/g
% ID-kg/g ([4]; Remnant (brain), 60 min): 0.041 ± 0.020 % ID-kg/g

Ki [1]: 7.9 nM
Ki [2]: 1.86 nM
melting point: 204.4 to 205.9 °C
Structure (SMILES): CN(C)c1ccc(-c2nc3ccc(F)cc3s2)cc1 [Example 6, 2-(4′-Dimethylaminophenyl)-6-fluorobenzothiazole]

logP [3]: 3.11
% ID/g ([4]; Blood, 2 min): 2.08 ± 0.19 % ID/g
% ID/g ([4]; Blood, 30 min): 0.92 ± 0.15 % ID/g
% ID/g ([4]; Blood, 60 min): 1.28 ± 0.08 % ID/g
% ID/g ([4]; Cerebellum, 2 min): 6.24 ± 0.35 % ID/g
% ID/g ([4]; Cerebellum, 30 min): 1.38 ± 0.23 % ID/g
% ID/g ([4]; Cerebellum, 60 min): 0.98 ± 0.12 % ID/g
% ID/g ([4]; Cortex, 2 min): 6.62±0.33 % ID/g
% ID/g ([4]; Cortex, 30 min): 1.20 ± 0.20 % ID/g
% ID/g ([4]; Cortex, 60 min): 0.73±0.09 % ID/g and 0.73 ± 0.10 % ID/g
% ID/g ([4]; Remnant (brain), 2 min): 6.30 ± 0.46 % ID/g
% ID/g ([4]; Remnant (brain), 30 min): 1.91 ± 0.30 % ID/g
% ID/g ([4]; Remnant (brain), 60 min): 1.32 ± 0.15 % ID/g
release from normal mouse brain (in words) ([4]; normal mouse brain): very quickly released
brain region to cerebellar ratio, Cinerea ([5]; 15 min): 0.45
brain region to cerebellar ratio, Frontal cortex ([5]; 15 min): 0.92
brain region to cerebellar ratio, Occipital cortex ([5]; 15 min): 1.05
brain region to cerebellar ratio, posterior cingulate cortex ([5]; 15 min): 0.89
brain region to cerebellar ratio, Cerebell ([5]; 15 min): 1.00
brain region to cerebellar ratio, Cinerea ([5]; 90 min): 0.83
brain region to cerebellar ratio, Frontal cortex ([5]; 90 min): 0.96
brain region to cerebellar ratio, Occipital cortex ([5]; 90 min): 0.95
brain region to cerebellar ratio, posterior cingulate cortex ([5]; 90 min): 0.87
brain region to cerebellar ratio, Cerebell ([5]; 90 min): 1.00
Structure (SMILES): CNc1ccc(-c2nc3ccc([18F])cc3s2)cc1 [Example 2, 2-(4′-N-Methylaminophenyl)-6-[^18F]fluorobenzothiazole]
% ID-kg/g ([4]; Blood, 2 min): 0.070 ± 0.007 % ID-kg/g
% ID-kg/g ([4]; Blood, 30 min): 0.032 ± 0.007 % ID-kg/g
% ID-kg/g ([4]; Blood, 60 min): 0.042 ± 0.006 % ID-kg/g
% ID-kg/g ([4]; Cerebellum, 2 min): 0.210 ± 0.017 % ID-kg/g
% ID-kg/g ([4]; Cerebellum, 30 min): 0.048 ± 0.011 % ID-kg/g
% ID-kg/g ([4]; Cerebellum, 60 min): 0.032 ± 0.003 % ID-kg/g
% ID-kg/g ([4]; Cortex, 2 min): 0.222 ± 0.015 % ID-kg/g
% ID-kg/g ([4]; Cortex, 30 min): 0.042 ± 0.010 % ID-kg/g
% ID-kg/g ([4]; Cortex, 60 min): 0.024 ± 0.002 % ID-kg/g
% ID-kg/g ([4]; Remnant (brain), 2 min): 0.212 ± 0.017 % ID-kg/g
% ID-kg/g ([4]; Remnant (brain), 30 min): 0.066 ± 0.014 % ID-kg/g
% ID-kg/g ([4]; Remnant (brain), 60 min): 0.044 ± 0.003 % ID-kg/g

Structure (SMILES): CNc1ccc(-c2nc3ccccc3s2)cc1I [2-(3-[125I]iodo-4′-N-methylaminophenyl)benzothiazole]
Kd [6]: 2.3 ± 0.33 nM
Kd [7]: 0.44 ± 0.25 nM
